These results are taken from patent US20040228905A1, “Anti-inflammatory and antimicrobial uses for bioactive glass compositions” (priority 1996, published 2004).

The assay concerns S. sanguis. As to the kind of experiment: Anti-bacterial activity of bioactive glass supernates, survivors enumerated by viable counting. It counts as cell-based. The conditions noted are these: non-bioactive glass derived alkaline solution, pH 9.8. As to the method:
Nutrient broth (10 ml) was added to 5 grams of particulate bioactive glass with a pore size between 355 and 500 μm, 5 grams of glass beads (not bioactive glass) with a particle size between 455 and 600 μm, and no glass beads. The resulting solutions were incubated with rotation for 1 h at 37 C. 950 μl of each supernatant was removed and added to 50 μl of an overnight culture of S. sanguis, and incubated for 1 h at 37 C. Survivors were enumerated by viable counting.

The structures appear in SMILES notation.

`[Na+].[OH-]` [NaOH] registered a kills of 40%.
